Key:
[1] = tested on: LNCaP cells; experiment: Growth in steroid-reduced medium with DHT and/or bicalutamide; assay type: cell-based, human; details: 10^−9 M DHT
Experimental: Cell Growth Assays: To measure growth in complete media, cells (2×10^4) were seeded in triplicate in individual wells of 12-well tissue culture plates in RPMI-1640 with 10% FBS and cultured for the indicated number of days. Cells were trypsinized, stained with Trypan Blue (0.4%), and counted in a hemacytometer. […] Colonies were counted after 10 days of incubation. For studies assessing the effect of dihydrotestosterone (DHT) on cell growth, cells (2×10^4) were plated in 12-well plates in complete media. After a 24-hour attachment period, the medium was replaced with steroid-free medium [phenol red-free RPMI 1640 and 5% charcoal-stripped FBS (Sigma)] for 48 hours. The final concentration of testosterone in the steroid-reduced media was less than 5 pM. After 48 hours of steroid depletion, cells were re-fed with fresh steroid-reduced medium with or without the indicated concentrations of DHT and/or bicalutamide (10 μM), and total cell numbers were assessed 7 days later.

[2] = target: Androgen Receptor (AR) (Homo sapiens, UniProt P10275, T878A)
Experimental: Luciferase Reporter Assays: Vector control or ebp1-transfected LNCaP (5×10^4) cells were plated in twelve-well plates in complete media. When cells reached 50-60% confluence, they were transfected with 0.5 μg of MMTV-luc using the Fugene-6 reagent (Roche). Cells were also transfected with the RL-TK vector as an internal control. […] Luciferase activity was determined as previously described using a Dual-Luciferase kit (Promega, Madison, Wis.). The activities of renilla luciferase were used to normalize any variations in transfection efficiency. The promoter activities of each plasmid construct were calculated as the firefly-renilla luciferase activity ratios. All transfection experiments were carried out in triplicate wells and repeated three times.

Androgen Receptor (AR), sequence (P10275 whole entry T878A): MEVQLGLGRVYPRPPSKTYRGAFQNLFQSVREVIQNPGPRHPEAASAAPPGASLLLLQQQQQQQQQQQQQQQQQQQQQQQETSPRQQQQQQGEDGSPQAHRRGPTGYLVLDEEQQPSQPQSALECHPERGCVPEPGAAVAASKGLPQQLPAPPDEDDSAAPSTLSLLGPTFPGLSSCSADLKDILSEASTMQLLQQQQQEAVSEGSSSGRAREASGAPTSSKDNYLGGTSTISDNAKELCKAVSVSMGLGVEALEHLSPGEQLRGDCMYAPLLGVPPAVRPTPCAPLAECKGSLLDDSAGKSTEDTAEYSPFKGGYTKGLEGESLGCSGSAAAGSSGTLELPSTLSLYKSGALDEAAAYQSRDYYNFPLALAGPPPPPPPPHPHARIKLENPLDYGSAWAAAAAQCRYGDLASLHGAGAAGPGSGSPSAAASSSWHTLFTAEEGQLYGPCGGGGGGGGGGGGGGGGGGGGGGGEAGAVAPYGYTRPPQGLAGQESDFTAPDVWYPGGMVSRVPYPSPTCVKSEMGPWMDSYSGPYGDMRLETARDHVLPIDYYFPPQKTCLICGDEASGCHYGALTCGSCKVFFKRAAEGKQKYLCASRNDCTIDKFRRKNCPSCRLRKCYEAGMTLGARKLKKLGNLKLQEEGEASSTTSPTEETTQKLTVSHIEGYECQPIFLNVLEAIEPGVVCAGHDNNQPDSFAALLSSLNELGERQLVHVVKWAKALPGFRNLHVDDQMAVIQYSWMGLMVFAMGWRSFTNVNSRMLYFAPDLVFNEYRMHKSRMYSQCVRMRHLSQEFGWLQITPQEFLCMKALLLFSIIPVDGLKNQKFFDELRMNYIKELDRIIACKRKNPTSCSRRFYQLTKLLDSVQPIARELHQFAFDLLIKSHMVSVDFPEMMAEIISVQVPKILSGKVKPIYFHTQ

Row | SMILES | stimulation of growth as compared to no DHT ([1]; Ebp1 transfectants) [%] | stimulation of growth as compared to no DHT ([1]; LNCaP vector controls, maximal) [%] | activation of luciferase activity (MMTV-luc) ([2]; LNCaP vector controls, R1881 10^−8 M) [fold] | AR activation (MMTV-luc) ([2]; ebp1 transfectants)
1 | C[C@]12CCC(=O)C[C@@H]1CC[C@@H]1[C@@H]2CC[C@]2(C)[C@@H](O)CC[C@@H]12 [DHT, dihydrotestosterone] | 35 | 250 | – | –
2 | C[C@]1(O)CC[C@H]2[C@@H]3CCC4=CC(=O)CCC4=C3C=C[C@@]21C [R1881] | – | – | 20 | neither R1881 nor cyproterone acetate nor the combination thereof stimulated AR activation

Reference: patent US7718626B2, “ErbB3 binding protein compositions and methods of use” (University of Maryland, Baltimore, priority 2005, dated 2010)
